Source: patent publication US20060074073A1, “Therapeutic combinations comprising poly (ADP-ribose) polymerases inhibitor” (AGOURON PHARMACEUTICALS, INC., priority 2004, published 2006)
“And” between values parts separate entries of the source, which are not always exact repeats. Equal entries are not always repeated. Where two headings read alike, the source gives them in different places. Marks after values point to notes of the source that are not given here.

Columns and labels:
[1] = human, in vivo
Method: This is an open-label, multi-center, dose-escalation study being conducted in 2 parts. Part 1 of the study was open to patients with advanced tumors.
The PK analysis was conducted on preliminary interim data using nominal collection times.

SW620 xenograft = test: In vivo antitumor efficacy with irinotecan, SW620 xenograft; set-up: species or system mice; settings: SW620, once weekly × 3
Excerpt: (§1) In no combination study was antagonism observed.

LoVo xenografts [2] = test: In vivo antitumor efficacy with temozolomide, LoVo xenograft
Excerpt: as §1

LoVo cells [3] = test: Inhibition of cell growth and potentiation of temozolomide/topotecan, LoVo; type: cell-based
[4] = IV pharmacokinetics in dogs; settings: Beagle, in vivo, dog
A549 cells = test: Inhibition of cell growth and potentiation of temozolomide/topotecan, A549; type: cell-based; settings: for GI50: Homo sapiens, 120 h, 5-day continuous exposure
Human protein binding = type: in vitro ADME
Method: This value was determined from the target effect (IC89) for inhibition of cellular NAD^+ depletion and poly-ADP-ribose polymer formation and adjusted for protein binding. […] II. Pharmaceutical Combinations of the Present Invention and Their Use

SW620 cells = test: Inhibition of cell growth and potentiation of topotecan, SW620; type: cell-based, human
in vivo = settings: CD-1, mouse, iv, 5 mg/kg
Excerpt: Each of the dose treatment groups was split into 2 cohort groups of 4 mice. The reason for cohort blood sampling is due to the blood volume limitations of the mouse species. Blood was drawn from each cohort every other pharmacokinetic sampling time. […] Three mice per dose group were euthanized at each of the collection time points. […] Blood from each rat was collected for each time point.

LoVo cells [5] = test: Inhibition of potentially lethal damage recovery, colony formation; type: cell-based; settings: 8 Gy + 0.4 μM compound
Excerpt: A contributory factor to radiation resistance in vivo is the ability of quiescent cells to repair potentially lethal damage (PLD) (Weichselbaum, R. R. and Little, J. B. The differential response of human tumors to fractionated radiation may be due to a post-irradiation repair process. Br. J. Cancer 1982; 46: 532-537). In vitro models of PLD measure the increase in survival of irradiated, growth arrested cells following delayed plating for colony formation. Recovery from potentially lethal damage was measured in vitro using LoVo cells that had been arrested in G1 phase by growing to confluence to mimic the radio-resistant quiescent cell population in tumors. Cells were exposed to 8 Gy of γ-irradiation (Gammacel 1000 Elite, Nordian International Inc. Canada), and either harvested and plated for colony formation assay immediately or maintained as growth arrested confluent cultures for a 24-hour recovery period before harvesting and plating for the colony formation assay. Where indicated, 0.4 μM compound Formula 1 was added 30 minutes before irradiation and was present throughout the recovery incubation.

LoVo xenografts [6] = test: Tumor growth delay with X-irradiation, LoVo xenografts; type: in vivo
Method: The experimental endpoint was defined to be the time required for relative tumor volume to increase to four times the volume measured at the start of treatment (RTV4). Growth delays were calculated from the difference in time taken to achieve RTV4 (days) between IR/Formula 1 treated tumors and untreated controls.

[7] = IV pharmacokinetics in monkeys; settings: cynomolgus monkey, in vivo
LoVo xenografts [8] = test: Ex-vivo clonogenic assay of irradiated LoVo xenografts; type: in vivo
Method: 24 h later tumors were excised, disaggregated to obtain single cell suspensions and plated for colony forming assay. […] The SF for the 15 mg/kg and 30 mg/kg IR combinations equated to that which would have been achieved using radiation doses of 8 Gy or 9.5 Gy, giving dose modification factors (DMF) of 1.6 and 1.9 respectively.

PARP = test: Inhibition of cellular NAD consumption in mouse peripheral blood lymphocytes after PARP activation; type: cell-based; settings: PARP activated by MNNG, hydrogen peroxide or gamma irradiation, data not shown
Excerpt: After DNA damage, cellular NAD is rapidly incorporated into poly-ADP-ribose polymer.

[9] = 15 mg/kg single IV dose (free base) as glucuronate salt
[10] = 15 mg/kg single IV dose as glucuronate salt
[11] = 15 mg/kg single IV dose as glucuronate salt, read-out: Vss
[12] = A549, compound 0.4 μM (Table 6)

## CNCc1ccc(-c2[nH]c3cc(F)cc4c3c2CCNC4=O)cc1.O=P(O)(O)O [Compound I, phosphate salt of 8-fluoro-2-{4-[(methylamino)methyl]phenyl}-1,3,4,5-tetrahydro-6H-azepino[5,4,3-cd]indol-6-one]
[1]
  mean total body clearance: 27 L/h
[1]; iv
  dose proportionality in AUC(0-24) and Cmax: linear dose proportionality
  mean terminal half-life: 6.2 to 10.7 h
[1]; iv, 1 mg/m2
  AUC0-24: 24.2 ng·h/mL
  AUCinf: 24.2 ng·h/mL
[1]; iv, 2 mg/m2
  AUC0-24: 139.0 ng·h/mL
  AUCinf: 167.0 ng·h/mL
[1]; iv, 4 mg/m2
  AUC0-24: 237.3 ng·h/mL
  AUCinf: 286.6 ng·h/mL
  CL: 26.0 L/h
  Cmax: 168.9 ng/mL
  Vss: 286.4 L
  t1/2: 10.7 h
[1]; iv, 8 mg/m2
  AUC0-24: 892.4 ng·h/mL
  AUCinf: 1118.8 ng·h/mL
  CL: 16.9 L/h
  Cmax: 456.4 ng/mL
  Vss: 151.7 L
  t1/2: 10.5 h
[1]; iv, 12 mg/m2
  AUC0-24: 1017.1 ng·h/mL
  AUCinf: 1163.3 ng·h/mL
  CL: 23.9 L/h
  Cmax: 882.5 ng/mL
  Vss: 270.1 L
  t1/2: 10.6 h

## CNCc1ccc(-c2[nH]c3cc(F)cc4c3c2CCNC4=O)cc1.O=C[C@H](O)[C@@H](O)[C@H](O)[C@H](O)C(=O)O [compound of formula 1 glucuronate salt]
SW620 xenograft; irinotecan 25 mg/kg i.p. + 0.05 mg/kg i.p. (glucuronate salt)
  Enhancement (%): 700%
SW620 xenograft; irinotecan 25 mg/kg i.p. + 0.15 mg/kg i.p. (glucuronate salt)
  Enhancement (%): 1100^f %
SW620 xenograft; irinotecan 25 mg/kg i.p. + 0.5 mg/kg i.p. (glucuronate salt)
  Enhancement (%): 1100^f %
LoVo xenografts [2]; LoVo experiment, any dose group
  body weight loss: No body weight loss
LoVo xenografts [2]; LoVo, temozolomide 68 mg/kg oral + 0.5 mg/kg i.p. (glucuronate salt), once daily for 5 days
  Enhancement (%): 67% and 67^f %

## CNCc1ccc(-c2[nH]c3cc(F)cc4c3c2CCNC4=O)cc1 [compound of formula 1, 8-fluoro-2-{4-[(methylamino)methyl]phenyl}-1,3,4,5-tetrahydro-6H-azepino[5,4,3-cd]indol-6-one]
LoVo cells [3]; +0.4 μM compound of formula 1
  Temozolomide PF50: 8 and 8.1
  Topotecan PF50: 1.6 and 1.7
LoVo cells [3]; Homo sapiens, 120 h, 5-day continuous exposure
  GI50: 12 µM
[4]; [9]
  AUC(0-inf): 4100 ± 500 ng·h/mL
[4]; [10]
  clearance: 61.8 ± 8.2 mL/min/kg
  half-life: 4.5 ± 1.1 h
[4]; [11]
  Vd: 15.2 ± 2.3 L/kg
A549 cells; A549, +0.4 μM compound of formula 1
  Topotecan PF50: 1.6
A549 cells; A549, GI50 temozolomide alone/GI50 temozolomide+0.4 μM compound of formula 1
  Temozolomide PF50: 3.5
A549 cells; A549, compound 0.0005 μM
  PF50 (Temozolomide): 1
  PF50 (Topotecan): 1.4
A549 cells; A549, compound 0.005 μM
  PF50 (Topotecan): 1.8
A549 cells; A549, compound 0.005 μM (5 nM)
  PF50 (Temozolomide): 1.3
A549 cells; A549, compound 0.05 μM
  PF50 (Topotecan): 2.1
A549 cells; A549, compound 0.1 μM
  PF50 (Temozolomide): 2.6
  PF50 (Topotecan): 2.2
A549 cells; [12]
  PF50 (Temozolomide): 3.5
  PF50 (Topotecan): 2.4
A549 cells; A549, LoVo and SW620 cell lines, read-out: GI50 values, range over cell lines
  GI50: 7 to 12 µM
A549 cells; A549, read-out: GI50
  GI50: 7 µM
Human protein binding; human, plasma, concentrations between 0.05 to 25 nM
  fraction unbound: 0.274
Human protein binding; target effect IC89 in A549 cells
  plasma concentration from 5 nM target effect corrected for human protein binding: 5.9 ng/mL
SW620 cells; +0.4 μM compound of formula 1
  Topotecan PF50: 2.6
SW620 cells; Homo sapiens, SW-620, 120 h, 5-day continuous exposure
  GI50: 11 µM
In vivo
  AUC(0-inf): 620 ng·h/mL
  Vd: 10 L/kg
  clearance: 136 mL/min/kg
  half-life: 2.3 h
LoVo cells [5]; 100 × (survival at 24 hr-survival at 0 time)/survival at 0 time
  % PLDR: 211 ± 184%
LoVo cells [5]; G1-arrested
  Survival at 0 time: 0.02 ± 0.01
  Survival at 24 hr: 0.057 ± 0.038
LoVo cells [5]; Homo sapiens, mean of 3 independent experiments, read-out: Inhibition of PLDR
  inhibition at 0.4 µM: 64.9%
LoVo xenografts [6]; IR 2 Gy + 0.15 mg/kg i.p. 30 minutes before, daily × 5, 0.15 mg/kg
  Enhancement (%): 36% and 36^e %
LoVo xenografts [6]; IR 2 Gy + 15 mg/kg i.p. 30 minutes before, daily × 5, 15 mg/kg
  Enhancement (%): 36% and 36^f %
[7]; [9]
  AUC(0-inf): 7400 ± 700 ng·h/mL
[7]; [10]
  clearance: 33.8 ± 3.1 mL/min/kg
  half-life: 5.2 ± 0.8 h
[7]; [11]
  Vd: 7.2 ± 1.2 L/kg
LoVo xenografts [8]; 15 mg/kg + 5 Gy
  DMF, dose modification factor: 1.6
  SF, surviving fraction: 0.06
  radiation dose that would give the same SF: 8 Gy
LoVo xenografts [8]; 30 mg/kg + 5 Gy
  DMF, dose modification factor: 1.9
  SF, surviving fraction: 0.03
  radiation dose that would give the same SF: 9.5 Gy
PARP
  inhibition of PARP catalytic activity (cellular NAD consumption): inhibits PARP catalytic activity
